From PubChem BioAssay AID248 (DTP/NCI, 2004)
Where “and” joins values, the source holds several entries; their conditions need not be identical. Identical values can stand only once. Toxic doses and inconclusive results are not listed. No stated cut-off is given here; in the data, active means T/C of 150% or more; inactive means T/C below 125%.

System: L1210 leukemia ip in BDF1 mice, survival T/C
Experiment: NCI In Vivo Anticancer Drug Screen. Data for tumor model L1210 Leukemia (intraperitoneal) in B6D2F1 (BDF1) mice
Settings: endpoint: mean survival time, higher = longer survival
Outline: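 Ratio derived from survival: compound-dosed mice over vehicle-dosed mice, all bearing a transplantable tumor.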

[1] = dose: 100.0 mg/kg/injection, schedule: Q04DX003 (ip), vehicle: saline with Tween-80
[2] = dose: 200.0 mg/kg/injection, schedule: Q04DX003 (ip), vehicle: saline with Tween-80
[3] = dose: 400.0 mg/kg/injection, schedule: Q04DX003 (ip), vehicle: saline with Tween-80

Measured: T/C

COC(=O)COc1ccc(Cl)c2ccccc12
inactive: dose: 50.0 mg/kg/injection, schedule: Q04DX002 (ip), vehicle: Klucel (hydroxypropylcellulose) (HPC) 89 % of control | dose: 100.0 mg/kg/injection, schedule: Q04DX002 (ip), vehicle: Klucel (hydroxypropylcellulose) (HPC) 96 % of control | dose: 200.0 mg/kg/injection, schedule: Q04DX002 (ip), vehicle: Klucel (hydroxypropylcellulose) (HPC) 99 % of control and 105 % of control | dose: 400.0 mg/kg/injection, schedule: Q04DX002 (ip), vehicle: Klucel (hydroxypropylcellulose) (HPC) 92 % of control

C=C(C)C#CCN(CCO)C(C)C
inactive: dose: 75.0 mg/kg/injection, schedule: Q01DX001 (ip), vehicle: other 96 % of control | dose: 150.0 mg/kg/injection, schedule: Q01DX001 (ip), vehicle: other 96 % of control

CCCCCCCCCCCCCCCCOc1ccc(C(SC)=[N+]2CCCCC2)cc1OC
inactive: dose: 100.0 mg/kg/injection, schedule: Q04DX003 (ip), vehicle: Klucel (hydroxypropylcellulose) (HPC) 98 % of control | dose: 200.0 mg/kg/injection, schedule: Q04DX003 (ip), vehicle: Klucel (hydroxypropylcellulose) (HPC) 102 % of control | dose: 400.0 mg/kg/injection, schedule: Q04DX003 (ip), vehicle: Klucel (hydroxypropylcellulose) (HPC) 102 % of control

Brc1ccc(-c2nc3ccccc3[nH]2)cc1
inactive: dose: 100.0 mg/kg/injection, schedule: Q01DX009 (ip), vehicle: saline with Tween-80 93 % of control | [1] 101 % of control | dose: 200.0 mg/kg/injection, schedule: Q01DX009 (ip), vehicle: saline with Tween-80 93 % of control | [2] 104 % of control | dose: 400.0 mg/kg/injection, schedule: Q01DX009 (ip), vehicle: saline with Tween-80 93 % of control | [3] 101 % of control

CCCCc1cn(C(=O)CCCl)nn1
inactive: dose: 100.0 mg/kg/injection, schedule: Q04DX002 (ip), vehicle: saline with Tween-80 100 % of control | dose: 200.0 mg/kg/injection, schedule: Q04DX002 (ip), vehicle: saline with Tween-80 100 % of control

CN(C)S(=O)(=O)c1ccccc1C1(O)CCCCC1
inactive: dose: 100.0 mg/kg/injection, schedule: Q01DX009 (ip), vehicle: other 87 % of control | [1] 91 % of control | dose: 200.0 mg/kg/injection, schedule: Q01DX009 (ip), vehicle: other 94 % of control | [2] 102 % of control | dose: 400.0 mg/kg/injection, schedule: Q01DX009 (ip), vehicle: other 97 % of control | [3] 109 % of control

NNC(=O)CCc1ccccc1[N+](=O)[O-]
inactive: dose: 40.0 mg/kg/injection, schedule: Q04DX003 (ip), vehicle: saline 108 % of control | dose: 75.0 mg/kg/injection, schedule: Q01DX001 (ip), vehicle: saline 93 % of control | dose: 75.0 mg/kg/injection, schedule: Q04DX003 (ip), vehicle: saline 98 % of control | dose: 150.0 mg/kg/injection, schedule: Q01DX001 (ip), vehicle: saline 96 % of control | dose: 150.0 mg/kg/injection, schedule: Q04DX003 (ip), vehicle: saline 101 % of control
